Laboratory results published in patent US20230027066A1 (Urovant Sciences GmbH, priority 2019, published 2023).

System: men and women with overactive bladder
Experiment: Phase 3 study of vibegron 75 mg vs placebo and tolterodine ER 4 mg, 12 weeks, efficacy (voiding and urine volume diary)
Format: in vivo, human
Conditions: for Daily Urgency Episodes: Vibegron - Placebo LS Means Difference: 75 mg; for Daily Urgency Episodes: Reduction from Baseline at Week 12, LS Mean: vibegron 75 mg, tolterodine ER 4 mg; for Patients with 100% Reduction in UUI from Baseline to Week 12, Unadjusted n (%) / Patients with at Least 75% Reduction in UUI from Baseline to Week 12, Unadjusted n (%) / Patients with 100% Reduction in UUI from Baseline to Week 12, Adjusted n (%) / Patients with at Least 75% Reduction in UUI from Baseline to Week 12, Adjusted n (%): FAS-I; for Patients with 100% Reduction in UUI from Baseline to Week 12, Adjusted n (%) / Patients with at Least 75% Reduction in UUI from Baseline to Week 12, Adjusted n (%): MI for missing values; for 75% UUI responders, Active-Placebo CMH Difference / 100% UUI responders, Active-Placebo CMH Difference: stratified by sex; for Urgency, Change from Baseline LS Mean / Urgency, LS Mean Difference active - Placebo: baseline to Week 12
Procedure: Enrollment of patients included individuals with OAB Wet (those with UUI, the involuntary loss of urine accompanied by urgency) and OAB Dry (those without UUI). A total of 1,518 patients were randomized across 215 study sites into one of three groups for a 12-week treatment period.
The study consisted of a Screening Period (1 to 5 weeks), a single-blind Run-in Period (2 weeks), a randomized double-blind Treatment Period (12 weeks), and a Follow-up Period (4 weeks).
Tolterodine ER 4 mg was the active control. […] Between the Baseline and Week 12 Visits, patients had study assessments at Week 4 and Week 8.
The Patient Voiding Diary was used by participants (via the eDiary or paper Diary) to record the frequency of daily OAB symptoms including all micturitions, urgency, incontinence, and main reason for incontinence by selecting the respective box for each symptom occurring during the course of a given day and night.
Urine volume data were collected separately by patients using the Urine Volume component of the eDiary, or the paper Urine Volume Chart. The Urine Volume Chart is a tool used in clinical practice and clinical investigation to assess voiding functions over a 24-hour period and is regarded as a useful instrument in the investigation of patients with voiding symptoms. Urine volume may be collected during any one (1) of the 7 Diary Days prior to the visit, and it should be recorded for ˜24 hours starting from the time the patient gets up for the day and continues until the time the patient gets up for the day on the next day.
For the purpose of this study, the number of micturitions was defined as the number of times a patient has voided in the toilet as indicated on the Patient Voiding Diary. Average daily micturitions were calculated using the daily entries in the Patient Voiding Diary, which was completed over the 7 days prior to each study visit. Average daily number of micturitions were calculated as the total number of micturitions that occurred on a Complete Diary Day divided by the number of Complete Diary Days in the Patient Voiding Diary. A complete diary day required confirmation by the patient in the Patient Voiding Diary that all voids and leakages had been recorded for the diary day. Baseline was defined as the average number of micturitions occurring during the last evaluable diary prior to the Baseline Visit.
The number of UUI episodes was defined as the number of times a patient had checked “urge” as the reason for accidental urine leakage. Average daily UUI episodes at each study visit were calculated in the same manner as described above for the micturition endpoint. The UUI endpoint were analyzed using only OAB Wet patients.
For the analysis of the co-primary endpoints (change from baseline in average number of daily micturitions at Week 12 and change from baseline in average number of daily urge urinary incontinence episodes at Week 12, and placebo adjustment of each), a mixed model for repeated measure (MMRM) with restricted maximum likelihood estimation was used. This model corrects for dropout and accounts for the fact that measurements taken on the same patient over time tend to be correlated by using all available information on patients within the same covariate set to derive an estimate of the treatment effect for a dropout-free population. The analysis model for each efficacy endpoint includes terms for treatment, visit, OAB Type (Wet vs Dry), Sex (Female vs Male), Region (US vs Rest of World), baseline score, and interaction of visit by treatment.
Primary inferences were drawn from treatment differences for the changes from baseline derived from the MMRM models at Week 12. As part of secondary objectives, the treatment differences for each post baseline visit were also derived using the same MMRM model. […]

[1] = 50% Total Incontinence Responders, Week 2
[2] = 50% Total Incontinence Responders, Week 4
[3] = 50% Total Incontinence Responders, Week 8
[4] = 50% Total Incontinence Responders, Week 12
[5] = Dry population, baseline to Week 2

SMILES: O=C(Nc1ccc(C[C@@H]2CC[C@H]([C@H](O)c3ccccc3)N2)cc1)[C@@H]1CCc2nccc(=O)n21 [Vibegron, (6S)-N-[4-[[(2S,5R)−5-[(R)-hydroxy(phenyl)methyl]pyrrolidin−2-yl]methyl]phenyl]−4-oxo−7,8-dihydro−6H-pyrrolo[1,2-a]pyrimidine−6-carboxamide]
- Average Volume Voided per Micturition, Mean (SD) [1]: 173.8 (76.89)
- Average daily number of urgency episodes, Mean (SD) [1]: 5.62 (3.792)
- Change from Baseline in Average Daily Number of Urgency Episodes, LS Mean (SE) [1]: −2.1 (0.15)
- Change from Baseline in Average Volume Voided per Micturition, LS Mean [1]: 16.1 (3.79)
- Change from baseline in Percent Dry Diary Days, LS Mean [1]: 29.0 (2.11) Percent
- Percent Dry Diary Days, Mean (SD) [1]: 34.64 (36.322) Percent
- Average Volume Voided per Micturition, Mean (SD) [2]: 176.5 (81.31)
- Average daily number of urgency episodes, Mean (SD) [2]: 5.01 (3.889)
- Change from Baseline in Average Daily Number of Urgency Episodes, LS Mean (SE) [2]: −2.6 (0.16)
- Change from Baseline in Average Volume Voided per Micturition, LS Mean [2]: 18.0 (3.99)
- Change from baseline in Percent Dry Diary Days, LS Mean [2]: 37.8 (2.41) Percent
- Percent Dry Diary Days, Mean (SD) [2]: 43.31 (41.468) Percent
- Average Volume Voided per Micturition, Mean (SD) [3]: 182.0 (84.53)
- Average daily number of urgency episodes, Mean (SD) [3]: 4.25 (3.833)
- Change from Baseline in Average Daily Number of Urgency Episodes, LS Mean (SE) [3]: −3.4 (0.19)
- Change from Baseline in Average Volume Voided per Micturition, LS Mean [3]: 24.2 (4.12)
- Change from baseline in Percent Dry Diary Days, LS Mean [3]: 47.4 (2.45) Percent
- Percent Dry Diary Days, Mean (SD) [3]: 53.01 (39.898) Percent
- Average Volume Voided per Micturition, Mean (SD) [4]: (186.2 (84.24)
- Average daily number of urgency episodes, Mean (SD) [4]: 3.67 (3.481)
- Change from Baseline in Average Daily Number of Urgency Episodes, LS Mean (SE) [4]: −4.0 (0.20)
- Change from Baseline in Average Volume Voided per Micturition, LS Mean [4]: 27.6 (4.24)
- Change from baseline in Percent Dry Diary Days, LS Mean [4]: 55.5 (2.37) Percent
- Percent Dry Diary Days, Mean (SD) [4]: 61.0 (37.857) Percent
- Average Volume Voided per Micturition, Mean (SD) (75% UUI Responders, Week 2): 174.3 (77.29)
- Average daily number of urgency episodes, Mean (SD) (75% UUI Responders, Week 2): 5.40 (3.762)
- Change from Baseline in Average Volume Voided per Micturition, LS Mean (75% UUI Responders, Week 2): 17.7 (4.28)
- Change from baseline in average daily number of urgency episodes, LS Mean (75% UUI Responders, Week 2): −2.2 (0.17)
- Average Volume Voided per Micturition, Mean (SD) (75% UUI Responders, Week 4): 178.1 (82.51)
- Average daily number of urgency episodes, Mean (SD) (75% UUI Responders, Week 4): 4.72 (3.838)
- Change from Baseline in Average Volume Voided per Micturition, LS Mean (75% UUI Responders, Week 4): 20.7 (4.52)
- Change from baseline in average daily number of urgency episodes, LS Mean (75% UUI Responders, Week 4): −2.7 (0.19)
- Average Volume Voided per Micturition, Mean (SD) (75% UUI Responders, Week 8): 184.2 (87.70)
- Average daily number of urgency episodes, Mean (SD) (75% UUI Responders, Week 8): 3.95 (3.742)
- Change from Baseline in Average Volume Voided per Micturition, LS Mean (75% UUI Responders, Week 8): 27.2 (4.67)
- Change from baseline in average daily number of urgency episodes, LS Mean (75% UUI Responders, Week 8): −3.5 (0.21)
- Average Volume Voided per Micturition, Mean (SD) (75% UUI Responders, Week 12): 185.0 (87.89)
- Average daily number of urgency episodes, Mean (SD) (75% UUI Responders, Week 12): 3.31 (3.433)
- Change from Baseline in Average Volume Voided per Micturition, LS Mean (75% UUI Responders, Week 12): 26.9 (4.87)
- Change from baseline in average daily number of urgency episodes, LS Mean (75% UUI Responders, Week 12): −4.2 (0.23)
- Daily Urgency Episodes: Vibegron - Placebo LS Means Difference (Age ≥65 years, Week 12): −1.0
- Daily Urgency Episodes: Reduction from Baseline at Week 12, LS Mean (Age ≥65 years): −2.7
- Daily Urgency Episodes: Vibegron - Placebo LS Means Difference (Age ≥75 years, Week 12): −1.7
- Daily Urgency Episodes: Reduction from Baseline at Week 12, LS Mean (Age ≥75 years): −2.6
- Daily Urgency Episodes: Vibegron - Placebo LS Means Difference (All patients, Week 12): −0.7
- Daily Urgency Episodes: Reduction from Baseline at Week 12, LS Mean (All patients): −2.7
- Patients with 100% Reduction in UUI from Baseline to Week 12, Unadjusted n (%) (Baseline Number of UUI <3): 79 (35.4) n (%)
- Patients with at Least 75% Reduction in UUI from Baseline to Week 12, Unadjusted n (%) (Baseline Number of UUI <3): 112 (50.2) n (%)
- Patients with 100% Reduction in UUI from Baseline to Week 12, Adjusted n (%) (Baseline Number of UUI <3): 68 (30.4) n (%)
- Patients with at Least 75% Reduction in UUI from Baseline to Week 12, Adjusted n (%) (Baseline Number of UUI <3): 101 (45.5) n (%)
- 75% UUI responders, Active-Placebo CMH Difference (Baseline Number of UUI <3): 7.1
- 100% UUI responders, Active-Placebo CMH Difference (Baseline Number of UUI <3): 2.8
- Patients with 100% Reduction in UUI from Baseline to Week 12, Unadjusted n (%) (Baseline Number of UUI ≥3): 37 (20.6) n (%)
- Patients with at Least 75% Reduction in UUI from Baseline to Week 12, Unadjusted n (%) (Baseline Number of UUI ≥3): 99 (55.0) n (%)
- Patients with 100% Reduction in UUI from Baseline to Week 12, Adjusted n (%) (Baseline Number of UUI ≥3): 34 (19.1) n (%)
- Patients with at Least 75% Reduction in UUI from Baseline to Week 12, Adjusted n (%) (Baseline Number of UUI ≥3): 98 (54.4) n (%)
- 75% UUI responders, Active-Placebo CMH Difference (Baseline Number of UUI ≥3): 29.4
- 100% UUI responders, Active-Placebo CMH Difference (Baseline Number of UUI ≥3): 12.3
- Urgency, Change from Baseline LS Mean (Dry population, Age <65): −2.9 (64)
- Urgency, LS Mean Difference active - Placebo (Dry population, Age <65): −1.4
- Urgency, Change from Baseline LS Mean (Dry population, Age ≥65): −2.2 (45)
- Urgency, LS Mean Difference active - Placebo (Dry population, Age ≥65): −0.5
- Average daily number of urgency episodes, Mean (SD) (Dry population, Week 2): 6.98 (4.732)
- Change from baseline in average daily number of urgency episodes, LS Mean (Dry population, Week 2): −1.5 (0.24)
- Urgency episodes, Active - Placebo LS Mean Difference (Dry population, Week 2): −0.8 (0.35)
- Average daily number of urgency episodes, Mean (SD) (Dry population, Week 4): 6.80 (4.667)
- Change from baseline in average daily number of urgency episodes, LS Mean (Dry population, Week 4): −1.8 (0.26)
- Urgency episodes, Active - Placebo LS Mean Difference (Dry population, Week 4): −0.9 (0.37)
- Average daily number of urgency episodes, Mean (SD) (Dry population, Week 8): 6.39 (4.627)
- Change from baseline in average daily number of urgency episodes, LS Mean (Dry population, Week 8): −2.2 (0.30)
- Urgency episodes, Active - Placebo LS Mean Difference (Dry population, Week 8): −1.0 (0.44)
- Average daily number of urgency episodes, Mean (SD) (Dry population, Week 12): 6.17 (4.958)
- Change from baseline in average daily number of urgency episodes, LS Mean (Dry population, Week 12): −2.6 (0.33)
- Urgency episodes, Active - Placebo LS Mean Difference (Dry population, Week 12): −1.0 (0.47)
- Patients with at Least 50% Reduction in Urgency Episodes, Adjusted (%) [5]: 18.1%
- Patients with at Least 50% Reduction in Urgency Episodes, Adjusted n [5]: 22
- Patients with at Least 50% Reduction in Urgency Episodes, Unadjusted (%) [5]: 18.7%
- Patients with at Least 50% Reduction in Urgency Episodes, Unadjusted n [5]: 23
- Urgency 50% responders, Active - Placebo CMH Difference [5]: 4.7
- Patients with at Least 50% Reduction in Urgency Episodes, Adjusted (%) (Dry population, baseline to Week 4): 22.4%
